Laboratory results taken from PubChem BioAssay (NCI).
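Dose response: 5 concentrations. Exposure: 48 h. Format: 96-well plates. Endpoint: linear interpolation; highest concentration if not reached. Abbreviation: GI50, concentration required for 50% inhibition of growth. TGI: total growth inhibition.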

How the values were obtained:
Assay in all cases: growth of human tumour cells (NCI), 48 h
HCT-116 colon = system: HCT-116 colon
KM12 colon = system: KM12 colon
OVCAR-3 ovarian = system: OVCAR-3 ovarian
NCI-H522 lung = system: NCI-H522 lung
CCRF-CEM leukemia = system: CCRF-CEM leukemia
HT29 colon = system: HT29 colon
SF-268 CNS = system: SF-268 CNS
786-0 renal = system: 786-0 renal
MDA-MB-231 breast = system: MDA-MB-231 breast
NCI-H226 lung = system: NCI-H226 lung

## COc1ccc2c(c1)-c1c(c3cc(OC)ccc3n(CCN(C)C)c1=O)C2=O
HCT-116 colon
  GI50: 0.241 µM
  TGI: 6.85 µM
KM12 colon
  GI50: 0.304 µM
  TGI: 1.28 µM
OVCAR-3 ovarian
  GI50: 0.843 µM
  TGI: 4.73 µM
NCI-H522 lung
  GI50: 0.0843 µM
  TGI: 0.59 µM
CCRF-CEM leukemia
  GI50: 0.199 µM
  TGI: 1.76 µM
HT29 colon
  GI50: 0.24 µM
  TGI: 1.2 µM
SF-268 CNS
  GI50: 0.362 µM
  TGI: 6.21 µM
786-0 renal
  GI50: 2.35 µM
  TGI: 9.42 µM
MDA-MB-231 breast
  GI50: 1.54 µM
  TGI: 8.07 µM
NCI-H226 lung
  GI50: 0.665 µM
  TGI: 10.4 µM

## C[C@]12CCC(=O)C[C@@H]1CC[C@@H]1[C@@H]2CC[C@]2(C)[C@@H](OC(=O)N(CCCl)N=O)CC[C@@H]12
HCT-116 colon
  GI50: 2.89 µM
  TGI: > 35.1 µM
KM12 colon
  GI50: 1.49 µM
  TGI: 6.41 µM
OVCAR-3 ovarian
  GI50: 3.53 µM
  TGI: 15.9 µM
NCI-H522 lung
  GI50: 2.48 µM
  TGI: 20.4 µM
CCRF-CEM leukemia
  GI50: 0.207 µM
HT29 colon
  GI50: 2.75 µM
  TGI: > 39 µM
SF-268 CNS
  GI50: 0.0983 µM
  TGI: 8.85 µM
786-0 renal
  GI50: 0.118 µM
  TGI: 3.66 µM
MDA-MB-231 breast
  GI50: 9.48 µM
  TGI: 24.4 µM
NCI-H226 lung
  GI50: 11.9 µM
  TGI: 30.4 µM

## CC(=O)c1c(C)c2cnc(Nc3ccc(N4CCNCC4)cn3)nc2n(C2CCCC2)c1=O
HCT-116 colon
  GI50: 3.07 µM
  TGI: 16.3 µM
KM12 colon
  GI50: 0.623 µM
  TGI: 13.9 µM
OVCAR-3 ovarian
  GI50: 15.9 µM
  TGI: 30.4 µM
NCI-H522 lung
  GI50: 13 µM
  TGI: 27.4 µM
CCRF-CEM leukemia
  GI50: 0.707 µM
  TGI: > 50.6 µM
HT29 colon
  GI50: 0.969 µM
  TGI: 16.8 µM
SF-268 CNS
  GI50: 10.7 µM
  TGI: 25.3 µM
786-0 renal
  GI50: 5.04 µM
  TGI: 20.7 µM
MDA-MB-231 breast
  GI50: 9.84 µM
  TGI: 24.9 µM
NCI-H226 lung
  GI50: 6.07 µM
  TGI: 22.4 µM

## O=C1/C(=C/c2ccc([N+](=O)[O-])o2)Oc2ccc(Cl)cc21
HCT-116 colon
  GI50: 0.648 µM
  TGI: 2.01 µM
KM12 colon
  GI50: 1.88 µM
  TGI: 3.68 µM
OVCAR-3 ovarian
  GI50: 1.7 µM
  TGI: 3.19 µM
NCI-H522 lung
  GI50: 1.31 µM
  TGI: 2.79 µM
CCRF-CEM leukemia
  GI50: 0.429 µM
  TGI: 2.24 µM
HT29 colon
  GI50: 1.87 µM
  TGI: 3.98 µM
SF-268 CNS
  GI50: 1.84 µM
  TGI: 3.77 µM
786-0 renal
  GI50: 2.72 µM
  TGI: 7.06 µM
MDA-MB-231 breast
  GI50: 1.77 µM
  TGI: 4.12 µM
NCI-H226 lung
  GI50: 1.78 µM
  TGI: 3.97 µM

## N#Cc1c(N)nc(N2CCOCC2)c(C#N)c1-c1c(Cl)cccc1Cl
HCT-116 colon
  GI50: 3.07 µM
  TGI: 12.2 µM
KM12 colon
  GI50: 6.42 µM
  TGI: 77.8 µM
OVCAR-3 ovarian
  GI50: 2.4 µM
  TGI: 6.37 µM
NCI-H522 lung
  GI50: 2.36 µM
  TGI: 8.38 µM
CCRF-CEM leukemia
  GI50: 4.91 µM
  TGI: 46.6 µM
HT29 colon
  GI50: 3.33 µM
  TGI: 17.4 µM
SF-268 CNS
  GI50: 11.3 µM
  TGI: > 100 µM
786-0 renal
  GI50: 12.9 µM
  TGI: 36.7 µM
MDA-MB-231 breast
  GI50: 3.57 µM
  TGI: 15.4 µM
NCI-H226 lung
  GI50: 15.2 µM
  TGI: 73.8 µM

## COc1cc(C2NC(=O)C(C#N)=C(Nc3cccc(C)c3)S2)ccc1O (centres undefined)
HCT-116 colon
  GI50: > 100 µM
  TGI: > 100 µM
KM12 colon
  GI50: > 100 µM
  TGI: > 100 µM
OVCAR-3 ovarian
  GI50: > 100 µM
  TGI: > 100 µM
NCI-H522 lung
  GI50: > 100 µM
  TGI: > 100 µM
CCRF-CEM leukemia
  GI50: > 100 µM
  TGI: > 100 µM
HT29 colon
  GI50: > 100 µM
  TGI: > 100 µM
SF-268 CNS
  GI50: > 100 µM
  TGI: > 100 µM
786-0 renal
  GI50: > 100 µM
  TGI: > 100 µM
MDA-MB-231 breast
  GI50: > 100 µM
  TGI: > 100 µM
NCI-H226 lung
  GI50: > 100 µM
  TGI: > 100 µM

## COc1cc(C(=O)n2nc(N)c3c(C)cc(C)nc32)cc(OC)c1OC
HCT-116 colon
  GI50: 42 µM
  TGI: > 100 µM
KM12 colon
  GI50: 10.4 µM
  TGI: > 100 µM
OVCAR-3 ovarian
  GI50: > 88.9 µM
  TGI: > 100 µM
NCI-H522 lung
  GI50: 10.8 µM
  TGI: > 100 µM
CCRF-CEM leukemia
  GI50: > 89.2 µM
  TGI: > 100 µM
HT29 colon
  GI50: 3.46 µM
  TGI: > 100 µM
SF-268 CNS
  GI50: > 100 µM
  TGI: > 100 µM
786-0 renal
  GI50: > 100 µM
  TGI: > 100 µM
MDA-MB-231 breast
  GI50: > 100 µM
  TGI: > 100 µM
NCI-H226 lung
  GI50: > 100 µM
  TGI: > 100 µM

## CCCCCCCCN=C(NCCCCCCCC)SCc1cccc2ccccc12
HCT-116 colon
  GI50: 0.73 µM
  TGI: 2.01 µM
KM12 colon
  GI50: 1.68 µM
  TGI: 3.19 µM
OVCAR-3 ovarian
  GI50: 1.72 µM
  TGI: 3.21 µM
NCI-H522 lung
  GI50: 1.38 µM
  TGI: 2.87 µM
CCRF-CEM leukemia
  GI50: 2.35 µM
  TGI: 9.69 µM
HT29 colon
  GI50: 0.839 µM
  TGI: 2.16 µM
SF-268 CNS
  GI50: 1.83 µM
  TGI: 3.37 µM
786-0 renal
  GI50: 1.24 µM
  TGI: 2.7 µM
MDA-MB-231 breast
  GI50: 1.14 µM
  TGI: 2.55 µM
NCI-H226 lung
  GI50: 1.52 µM
  TGI: 2.95 µM

## COc1ccc2c(c1)/C(=N/OC(C)=O)c1c-2c(OC)nc2ccccc12
HCT-116 colon
  GI50: > 100 µM
  TGI: > 100 µM
KM12 colon
  GI50: > 100 µM
  TGI: > 100 µM
OVCAR-3 ovarian
  GI50: > 100 µM
  TGI: > 100 µM
NCI-H522 lung
  GI50: > 100 µM
  TGI: > 100 µM
CCRF-CEM leukemia
  GI50: > 100 µM
  TGI: > 100 µM
HT29 colon
  GI50: > 100 µM
  TGI: > 100 µM
SF-268 CNS
  GI50: > 100 µM
  TGI: > 100 µM
786-0 renal
  GI50: > 100 µM
  TGI: > 100 µM
MDA-MB-231 breast
  GI50: 35 µM
  TGI: > 100 µM
NCI-H226 lung
  GI50: > 100 µM
  TGI: > 100 µM

## Cc1ccc(-c2nc3sc(C)cn3c2/C=C2\C(=O)Nc3ccc(Cl)cc32)cc1
HCT-116 colon
  GI50: 12.2 µM
  TGI: 24.7 µM
KM12 colon
  GI50: 20.6 µM
  TGI: 48.5 µM
OVCAR-3 ovarian
  GI50: 24.6 µM
  TGI: 62.8 µM
NCI-H522 lung
  GI50: 15.5 µM
  TGI: 30.1 µM
CCRF-CEM leukemia
  GI50: 29.3 µM
  TGI: 93.6 µM
HT29 colon
  GI50: 20.3 µM
  TGI: 41.4 µM
SF-268 CNS
  GI50: 17.8 µM
  TGI: 35.5 µM
786-0 renal
  GI50: 10.3 µM
  TGI: 22 µM
MDA-MB-231 breast
  GI50: 4.35 µM
  TGI: 20.1 µM
NCI-H226 lung
  GI50: 22.9 µM
  TGI: > 100 µM

## FC(F)(F)c1cccc(-c2[nH]ncc2-c2nnnn2-c2ccccc2)c1
HCT-116 colon
  GI50: 4.7 µM
  TGI: 19.4 µM
KM12 colon
  GI50: 4.08 µM
  TGI: 22.2 µM
OVCAR-3 ovarian
  GI50: 2.97 µM
  TGI: 10.9 µM
NCI-H522 lung
  GI50: 4.58 µM
  TGI: 19 µM
CCRF-CEM leukemia
  GI50: 5.3 µM
  TGI: 22.9 µM
HT29 colon
  GI50: 2.99 µM
  TGI: 9.33 µM
SF-268 CNS
  GI50: 7.69 µM
  TGI: 23.3 µM
786-0 renal
  GI50: 5.78 µM
  TGI: 22 µM
MDA-MB-231 breast
  GI50: 3.2 µM
  TGI: 12.7 µM
NCI-H226 lung
  GI50: 13.2 µM
  TGI: 31.1 µM

## Cc1c(C(N)=O)sc2nc(C)n(/N=c3\scc(-c4ccccc4)n3Cc3ccccc3)c(=O)c12
HCT-116 colon
  GI50: 2.13 µM
  TGI: 10.3 µM
KM12 colon
  GI50: 3.37 µM
  TGI: > 100 µM
OVCAR-3 ovarian
  GI50: 2.28 µM
  TGI: 8.58 µM
NCI-H522 lung
  GI50: 1.73 µM
  TGI: 7.23 µM
CCRF-CEM leukemia
  GI50: 34.2 µM
  TGI: > 100 µM
HT29 colon
  GI50: 3.04 µM
  TGI: > 100 µM
SF-268 CNS
  GI50: 4 µM
  TGI: > 100 µM
786-0 renal
  GI50: 3.82 µM
  TGI: > 100 µM
MDA-MB-231 breast
  GI50: 3.28 µM
  TGI: 8.41 µM
NCI-H226 lung
  GI50: 3.72 µM
  TGI: 67.9 µM
